Data from patent publication US10750743B2, “Pyridazinone herbicides” (E.I. DU PONT DE NEMOURS AND COMPANY, priority 2015, dated 2020).

Experiments:
Assay type in all cases: in vivo
[1] = test system: barnyardgrass (Echinochloa crus-galli); assay: Test A preemergence, directed soil spray, visual injury rating; conditions: Echinochloa crus-galli, pre-emergence, 240 h, 0 is no effect, 100 is complete control, read-out: Plant response rating (0 to 100 scale), Barnyardgrass; for pest or weed control at 125 g/ha: 125 g ai/ha; for pest or weed control at 500 g/ha: 500 g ai/ha
Summary of the method: (§1)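 Compounds in a surfactant-containing solvent were applied as a directed soil spray preemergence, or postemergence to plants 2-10 cm tall at the one- to two-leaf stage, in loam-sand blend. After about 10 d in the greenhouse, injury was rated visually against untreated controls on a 0-100 scale (100 = complete control).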

[2] = test system: foxtail, giant (giant foxtail, Setaria faberii); assay: as above; conditions: Setaria faberi, pre-emergence, 240 h, 0 is no effect, 100 is complete control, read-out: Plant response rating (0 to 100 scale), Foxtail, Giant; for pest or weed control at 125 g/ha: 125 g ai/ha; for pest or weed control at 500 g/ha: 500 g ai/ha
Summary of the method: as §1

[3] = test system: ragweed (common ragweed, Ambrosia elatior); assay: as above; conditions: Ambrosia artemisiifolia, pre-emergence, 240 h, 0 is no effect, 100 is complete control, read-out: Plant response rating (0 to 100 scale), Ragweed; for pest or weed control at 125 g/ha: 125 g ai/ha; for pest or weed control at 500 g/ha: 500 g ai/ha
Summary of the method: as §1

[4] = test system: ryegrass, It. (Italian ryegrass, Lolium multiflorum); assay: as above; conditions: Lolium multiflorum, pre-emergence, 240 h, 0 is no effect, 100 is complete control, read-out: Plant response rating (0 to 100 scale), Ryegrass, It.; for pest or weed control at 125 g/ha: 125 g ai/ha; for pest or weed control at 500 g/ha: 500 g ai/ha
Summary of the method: as §1

[5] = test system: barnyardgrass (Echinochloa crus-galli); assay: Test B flooded paddy test, visual rating; conditions: Echinochloa crus-galli, 360 h; Flood, 250 g ai/ha, applied to paddy water, rated after 13 to 15 d; read-out: Barnyardgrass plant response rating (0 to 100 scale, 0 is no effect, 100 is complete control)
Summary of the method: (§2)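 Plants grown to the 2-leaf stage. At treatment, pots were flooded to 3 cm above the soil, compound was applied directly to the paddy water, and that depth was held throughout. After 13 to 15 d in the greenhouse, response was rated visually against controls on a 0 (no effect) to 100 (complete control) scale.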

[6] = test system: ducksalad (Heteranthera limosa); assay: Test B flooded paddy test, visual rating; conditions: Heteranthera limosa, 360 h; Flood, 250 g ai/ha, applied to paddy water, rated after 13 to 15 d; read-out: Ducksalad plant response rating (0 to 100 scale, 0 is no effect, 100 is complete control)
Summary of the method: as §2

rice (Oryza sativa) = assay: Test B flooded paddy test, visual rating; conditions: Oryza sativa, 360 h; Flood, 250 g ai/ha, applied to paddy water, rated after 13 to 15 d; read-out: Rice plant response rating (0 to 100 scale, 0 is no effect, 100 is complete control)
Summary of the method: as §2

[7] = test system: sedge, umbrella (small-flower umbrella sedge, Cyperus difformis); assay: Test B flooded paddy test, visual rating; conditions: Cyperus difformis, 360 h; Flood, 250 g ai/ha, applied to paddy water, rated after 13 to 15 d; read-out: Sedge, Umbrella plant response rating (0 to 100 scale, 0 is no effect, 100 is complete control)
Summary of the method: as §2

[8] = test system: barnyardgrass (Echinochloa crus-galli); assay: Test A postemergence application, visual injury rating; conditions: Echinochloa crus-galli, post-emergence, 240 h, 0 to 100 scale, 0 no effect, 100 complete control, read-out: Barnyardgrass plant response rating; for pest or weed control at 125 g/ha: 125 g ai/ha; for pest or weed control at 500 g/ha: 500 g ai/ha
Summary of the method: as §1

[9] = test system: blackgrass (Alopecurus myosuroides); assay: as above; conditions: Alopecurus myosuroides, post-emergence, 240 h, 0 to 100 scale, 0 no effect, 100 complete control, read-out: Blackgrass plant response rating; for pest or weed control at 125 g/ha: 125 g ai/ha; for pest or weed control at 500 g/ha: 500 g ai/ha
Summary of the method: as §1

corn (Zea mays) = assay: as above; conditions: Zea mays, post-emergence, 240 h, 0 to 100 scale, 0 no effect, 100 complete control, read-out: Corn plant response rating; for plant injury at 125 g/ha: 125 g ai/ha; for plant injury at 500 g/ha: 500 g ai/ha
Summary of the method: as §1

[10] = test system: foxtail, giant (giant foxtail, Setaria faberii); assay: as above; conditions: Setaria faberi, post-emergence, 240 h, 0 to 100 scale, 0 no effect, 100 complete control, read-out: Foxtail, Giant plant response rating; for pest or weed control at 125 g/ha: 125 g ai/ha; for pest or weed control at 500 g/ha: 500 g ai/ha
Summary of the method: as §1

[11] = test system: galium (catchweed bedstraw, Galium aparine); assay: as above; conditions: Galium, post-emergence, 240 h, 0 to 100 scale, 0 no effect, 100 complete control, read-out: Galium plant response rating; for pest or weed control at 125 g/ha: 125 g ai/ha; for pest or weed control at 500 g/ha: 500 g ai/ha
Summary of the method: as §1

kochia (Kochia scoparia) = assay: as above; conditions: Bassia scoparia, post-emergence, 240 h, 0 to 100 scale, 0 no effect, 100 complete control, read-out: Kochia plant response rating; for pest or weed control at 125 g/ha: 125 g ai/ha; for pest or weed control at 500 g/ha: 500 g ai/ha
Summary of the method: as §1

[12] = test system: pigweed (Amaranthus retroflexus); assay: as above; conditions: Amaranthus retroflexus, post-emergence, 240 h, 0 to 100 scale, 0 no effect, 100 complete control, read-out: Pigweed plant response rating; for pest or weed control at 125 g/ha: 125 g ai/ha; for pest or weed control at 500 g/ha: 500 g ai/ha
Summary of the method: as §1

[13] = test system: ragweed (common ragweed, Ambrosia elatior); assay: as above; conditions: Ambrosia artemisiifolia, post-emergence, 240 h, 0 to 100 scale, 0 no effect, 100 complete control, read-out: Ragweed plant response rating; for pest or weed control at 125 g/ha: 125 g ai/ha; for pest or weed control at 500 g/ha: 500 g ai/ha
Summary of the method: as §1

[14] = test system: ryegrass, It. (Italian ryegrass, Lolium multiflorum); assay: as above; conditions: Lolium multiflorum, post-emergence, 240 h, 0 to 100 scale, 0 no effect, 100 complete control, read-out: Ryegrass, It. plant response rating; for pest or weed control at 125 g/ha: 125 g ai/ha; for pest or weed control at 500 g/ha: 500 g ai/ha
Summary of the method: as §1

[15] = test system: wheat (Triticum aestivum); assay: as above; conditions: Triticum aestivum, post-emergence, 240 h, 0 to 100 scale, 0 no effect, 100 complete control, read-out: Wheat plant response rating; for plant injury at 125 g/ha: 125 g ai/ha; for plant injury at 500 g/ha: 500 g ai/ha
Summary of the method: as §1

| Structure (SMILES) | pest or weed control at 125 g/ha [1] [%] | pest or weed control at 500 g/ha [1] [%] | pest or weed control at 125 g/ha [2] [%] | pest or weed control at 500 g/ha [2] [%] | pest or weed control at 125 g/ha [3] [%] | pest or weed control at 500 g/ha [3] [%] | pest or weed control at 125 g/ha [4] [%] | pest or weed control at 500 g/ha [4] [%] | pest or weed control at 250 g/ha [5] [%] | pest or weed control at 250 g/ha [6] [%] | plant injury at 250 g/ha (rice (Oryza sativa)) [%] | pest or weed control at 250 g/ha [7] [%] | pest or weed control at 125 g/ha [8] [%] | pest or weed control at 500 g/ha [8] [%] | pest or weed control at 125 g/ha [9] [%] | pest or weed control at 500 g/ha [9] [%] | plant injury at 125 g/ha (corn (Zea mays)) [%] | plant injury at 500 g/ha (corn (Zea mays)) [%] | pest or weed control at 125 g/ha [10] [%] | pest or weed control at 500 g/ha [10] [%] | further results |
| --- | --- | --- | --- | --- | --- | --- | --- | --- | --- | --- | --- | --- | --- | --- | --- | --- | --- | --- | --- | --- | --- |
| CC(=O)Oc1c(C)nn(C)c(=O)c1-c1c(C)ccc2cc(C)oc12 [Compound 11, 5-(acetyloxy)-4-(2,6-dimethyl-7-benzofuranyl)-2,6-dimethyl-3(2H)-pyridazinone] | 50 | 100 | 50 | 100 | 90 | 100 | 100 | 100 | 0 | 0 | 0 | 0 | 30 | 60 | 60 | 90 | 0 | 30 | 60 | 80 | pest or weed control at 125 g/ha [11]: 90%; pest or weed control at 500 g/ha [11]: 90%; pest or weed control at 125 g/ha (kochia (Kochia scoparia)): 100%; pest or weed control at 500 g/ha (kochia (Kochia scoparia)): 100%; pest or weed control at 125 g/ha [12]: 90%; pest or weed control at 500 g/ha [12]: 100%; pest or weed control at 125 g/ha [13]: 100%; pest or weed control at 500 g/ha [13]: 100%; pest or weed control at 125 g/ha [14]: 100%; pest or weed control at 500 g/ha [14]: 100%; plant injury at 125 g/ha [15]: 0%; plant injury at 500 g/ha [15]: 40% |
| Cc1nn(C)c(=O)c(-c2cccc3snc(C)c23)c1O [Compound 25, 5-hydroxy-2,6-dimethyl-4-(3-methyl-1,2-benzisothiazol-4-yl)-3 (2H)-pyridazinone] | 0 | 40 | 30 | 80 | 40 | 70 | 0 | 30 | 0 | 0 | 0 | 0 | 20 | 40 | 20 | 30 | 0 | 20 | 30 | 80 | pest or weed control at 125 g/ha [11]: 80%; pest or weed control at 500 g/ha [11]: 90%; pest or weed control at 125 g/ha (kochia (Kochia scoparia)): 100%; pest or weed control at 500 g/ha (kochia (Kochia scoparia)): 100%; pest or weed control at 125 g/ha [12]: 90%; pest or weed control at 500 g/ha [12]: 90%; pest or weed control at 125 g/ha [13]: 70%; pest or weed control at 500 g/ha [13]: 90%; pest or weed control at 125 g/ha [14]: 20%; pest or weed control at 500 g/ha [14]: 70%; plant injury at 125 g/ha [15]: 20%; plant injury at 500 g/ha [15]: 30% |
